Target: T1, 6HIS-Tev-LRRK2 (1326-2527) (Homo sapiens, UniProt Q5S007)
T1 construct: A LRRK2 cDNA encoding residues 1326-2527 was received from Dundee University; made in house; host or cells: Spodoptera frugiperda Sf9 (baculovirus, pFB-HTb)
T1 sequence (Q5S007 1326-2527): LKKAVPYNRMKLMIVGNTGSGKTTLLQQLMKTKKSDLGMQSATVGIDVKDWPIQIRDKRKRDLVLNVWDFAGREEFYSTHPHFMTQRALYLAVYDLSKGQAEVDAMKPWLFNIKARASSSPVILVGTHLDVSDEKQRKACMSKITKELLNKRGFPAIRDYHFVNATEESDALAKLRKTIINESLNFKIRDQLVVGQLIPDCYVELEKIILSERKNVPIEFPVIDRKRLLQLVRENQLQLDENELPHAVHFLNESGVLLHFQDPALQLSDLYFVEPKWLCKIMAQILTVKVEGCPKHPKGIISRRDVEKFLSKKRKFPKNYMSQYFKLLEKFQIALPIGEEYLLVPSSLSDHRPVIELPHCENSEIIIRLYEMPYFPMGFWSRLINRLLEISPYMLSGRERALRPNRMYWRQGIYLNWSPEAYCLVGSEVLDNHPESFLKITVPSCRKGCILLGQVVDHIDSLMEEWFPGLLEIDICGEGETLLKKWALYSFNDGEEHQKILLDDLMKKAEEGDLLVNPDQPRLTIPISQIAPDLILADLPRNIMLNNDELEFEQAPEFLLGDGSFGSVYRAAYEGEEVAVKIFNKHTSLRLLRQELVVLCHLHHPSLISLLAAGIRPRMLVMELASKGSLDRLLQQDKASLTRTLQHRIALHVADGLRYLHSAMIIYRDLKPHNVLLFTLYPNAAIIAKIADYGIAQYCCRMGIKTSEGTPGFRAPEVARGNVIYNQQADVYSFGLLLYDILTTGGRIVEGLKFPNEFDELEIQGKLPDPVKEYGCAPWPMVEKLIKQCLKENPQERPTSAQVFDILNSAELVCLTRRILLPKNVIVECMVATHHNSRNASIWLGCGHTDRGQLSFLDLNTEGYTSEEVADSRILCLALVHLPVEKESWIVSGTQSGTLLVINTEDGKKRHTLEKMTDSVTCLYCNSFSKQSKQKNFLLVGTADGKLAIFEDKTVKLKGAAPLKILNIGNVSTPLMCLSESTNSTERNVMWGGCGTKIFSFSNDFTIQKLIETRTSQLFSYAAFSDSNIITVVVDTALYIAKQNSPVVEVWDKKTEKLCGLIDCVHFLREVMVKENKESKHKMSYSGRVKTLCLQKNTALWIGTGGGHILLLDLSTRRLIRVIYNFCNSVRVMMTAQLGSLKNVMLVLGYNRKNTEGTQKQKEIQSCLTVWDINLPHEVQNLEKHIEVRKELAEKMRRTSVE
Experiment: Recombinant LRRK2 enzyme peptide substrate TR-FRET assay
Format: biochemical
Conditions: 60 nM LRRK2 enzyme; 10 uM ATP; read-out: pIC50 in the recombinant LRRK2 enzyme peptide substrate TR-FRET assay (converted)
Protocol: A LRRK2 cDNA encoding residues 1326-2527 was received from Dundee University (described in M. Jaleel et al., 2007, Biochem J, 405: 407-417). This gene fragment was subcloned into pFB-HTb (Invitrogen) using BamHI and NotI restriction sites. The LRRK2 plasmid was recombined into the baculovirus genome according to the BAC-to-BAC protocol described by Invitrogen. Transfection into Spodoptera frugiperda (Sf9) insect cells was performed using Cellfectin (Invitrogen), according to the manufacturer's protocol to generate P1 and P2 baculovirus stocks.
Sf9 cells were grown in HyClone SFX (Thermo Scientific) growth media at 27° C., 80 rpm in shake flask until of a sufficient volume to inoculate a bioreactor. The cells were grown in a 20 liter working volume Wave bioreactor (GE Healthcare) at 27° C., 50% dissolved oxygen and an agitation rate 22 rocks per minute, 10 degree rock angle, 200 ml/min air with a cell concentration of approximately 6×e6 cells/ml. The cells were infected with P2 Baculovirus at a multiplicity of infection (MOI) of 3. The cultivation was continued for a 48 hour expression phase. The infected cells were removed from the growth media by centrifugation at 2500 g using a Sorvall RC 3C Plus centrifuge at 2500 g for 20 minutes. The cell pellet was immediately frozen and subsequently supplied for purification.
A 260 g pellet was allowed to thaw in a water bath at 27° C. with 800 ml lysis buffer/buffer A (50 mm Tris-HCl pH 8.5, 300 mM NaCl, 1 mm DTT, 10% glycerol, 1 ml/L calbiochem complete protease inhibitor cocktail and benzonase (50 ul/800 ml)) before being dounce homogenised on ice using 20 strokes per 100 ml. The suspension was packed in ice and sonicated at 50% amplitude for 3 min 10 sec on/off using a ¾″ probe. The suspension was then centrifuged at 100,000 g for 90 min, at 4° C.
The lysate (700 ml) was decanted from the insoluble pellet and contacted for 3 h at 4 C with 10 ml His bind Ni NTA resin by end over end mixing. The resin was recovered by centrifugation, 3000 g, 5 min at 4 C, and packed in an XK16 column. The column was then washed with 10 column volumes buffer A, 10 column volumes buffer B (buffer A+1M NaCl) and 10 column volumes buffer C (buffer A+20 mM imidazole). The column was then eluted with 15 column volumes buffer D (buffer A+300 mM imidazole) collecting 2 ml fractions. All washes and elution were conducted at 4 ml/min.
Fractions identified by SDS-PAGE as containing protein of interest were pooled and loaded directly onto a 320 ml SEC Superdex 200 pg column that was pre-equilibrated with buffer E (50 mM Tris-HCl pH 8.5, 300 mM NaCl, 10% glycerol, 1 mM DTT). The column was loaded and eluted with 1.2 column volumes buffer E at 2 ml/min collecting 2 ml fractions. Fractions identified by SDS-PAGE as containing protein of interest were tested for activity.
Production of Biotin-Loner LRRKtide
The peptide (biotin-[…]-OH) was assembled at a […] scale using FMOC solid phase peptide synthesis on an ACT 357 MPS automated peptide synthesizer. The resulting crude peptide was cleaved from the resin using a 95:2.5:2.5 mix of trifluoroacetic acid: triisopropylsilane: water. The crude cleaved peptide was purified by reverse phase HPLC, eluting with a 5-35% gradient of 0.1% trifluoroacetic acid/acetonitrile in 0.1% trifluoroacetic acid/water.
Recombinant LRRK2 Enzyme Peptide Substrate TR-FRET Assay
This assay for LRRK2 inhibition is based on the detection of phosphorylation of the peptide ‘longer LRRKtide’ (biotin-[…]-OH) using a time resolved-fluorescence resonance energy transfer (TR-FRET) assay. It uses an antibody labelled europium chelate donor, W-1024 (Eu) and Streptavidin-Surelight APC acceptor (APC). When in close proximity, the excitation of Eu at 330 nm leads to energy transfer to APC with emission of light at 665 nm,
Assay Protocol • 1. A 10 mM test compound was dissolved in 100% DMSO and serially diluted 1 in 4. […]

IC50	Structure (SMILES)
≤ 100 nM	CCOc1nc(Nc2cnn(C3CCCC3(C)O)c2C)nc2[nH]ccc12 (single isomer, unassigned) [Example E78, trans-2-(4-((4-ethoxy-7H-pyrrolo-[2,3-d]pyrimidin-2-yl)amino)-5-methyl-1H-pyrazol-1-yl)-1-methylcyclopentanol]
≤ 100 nM	CCOc1nc(Nc2cn(C3CCN(C)CC3)nc2C)nc2[nH]ccc12 [Example E19, 4-ethoxy-N-(3-methyl-1-(1-methylpiperidin-4-yl)-1H-pyrazol-4-yl)-7H-pyrrolo-[2,3-d]-pyrimidin-2-amine]
≤ 100 nM	Cc1c(Nc2nc(OCC3CC3)c3cn[nH]c3n2)cnn1CC(C)(C)O [Example E24, 1-(4-((4-(cyclopropylmethoxy)-1H-pyrazolo-[3,4-d]-pyrimidin-6-yl)amino)-5-methyl-1H-pyrazol-1-yl)-2-methylpropan-2-ol]
